Like-named read-outs stand apart in the source and are kept apart here.
Key:
[1] = biodistribution and PET/CT in ZR-75-1 tumor-bearing NOD scid gamma mice; details: female, mouse, in vivo, iv, total radioactivity; for tissue uptake at 1 h: NOD scid gamma (NOD.Cg-Prkdc^sci Il2rg^tm1Wjl/SzJ); for tissue to tissue ratio at 1 h: NOD scid gamma (NOD.Cg-Prkdc scid Il2rg tm1Wjl/SzJ)
From the text: (§1) All animal studies were done in compliance with the Canadian Council on Animal Care guidelines and were approved by the Animal Care Committee of University of British Columbia (Vancouver, Canada). Immunodeficient female NOD.Cg-Prkdc ^sci Il2rg ^tm1Wjl/SzJ mice (NOD scid gamma) were obtained from an in-house breeding colony at the Animal Resource Centre of the BC Cancer Agency Research Centre and also from Jackson Laboratory. To sustain the growth of the ER-positive ZR-75-1 cell model, animals were administered a 1.7 mg, 60-day slow-release estrogen pellet from Innovative Research of America (Sarasota, FL) subcutaneously in the dorsal space of the neck. 3–5 days post pellet-implant, 10 million ZR-75-1 cells were re-suspended in a mixture of 1:1 PBS and Matrigel (Corning Inc., Corning, NY) and inoculated subcutaneously on the right shoulder. Tumors were grown for 5–6 weeks, until they reached a size of 7–11 mm in diameter.
(§2) Mice were sedated using 2 mL/min of O2 with 2% isoflurane and injected intravenously (i.v.) with 1–2 MBq of ^68Ga-labeled peptide. Mice were allowed to roam freely for 60 min prior to euthanasia by 2 mL/min of O2 with 4% isoflurane followed by CO2 asphyxiation. Blood was promptly collected by cardiac puncture and weighted. Internal organs were harvested, rinsed in PBS, patted dry and weighed. Organ uptake was measured either in a WIZARD 2480 gamma counter (Perkin Elmer) or Cobra II auto-gamma counter (Packard), both calibrated with standards of known ^68Ga activity. Uptake was normalized to the injected dose and to the respective weight of the organ, and expressed as percent injected dose per gram of tissue (%ID/g).
(§3) Tumor-bearing mice were injected i.v. with 8–9 MBq of ^68Ga-labeled peptide. Static PET images were acquired 55 min post-injection for 10 min using an Inveon microPET/CT scanner (Siemens, Erlangen, Germany) as described previously (Lin et al. [2015]). A baseline CT scan was used for localization and attenuation correction. Mice were promptly euthanized after imaging, and biodistribution studies were undertaken as described above.

[2] = test system: ZR-75-1 tumors; test: as above; details: mouse, in vivo, iv; for Kidneys uptake / Tumor uptake: female, NOD scid gamma (NOD.Cg-Prkdc^sci Il2rg^tm1Wjl/SzJ)
From the text: as §1, §2, §3

[3] = test system: sstr2; set-up: method as in Reubi et al. [2000]; details: ref Reubi et al. [2000]; cited from earlier work
[4] = test system: NET; details: human, in vivo; cited from earlier work
[5] = target: T1, sstr2 receptors on ZR-75-1 cells (Homo sapiens, UniProt P30874); test: saturation binding assay on ZR-75-1 cells; details: ZR-75-1 cells in vitro; 1 h at 25 °C; one-site binding model
T1 construct: we used a human breast cancer cell model with endogenous sstr2 expression (ZR-75-1 cells); host or cells: ZR-75-1 cells

[6] = test system: sstr2; set-up: method as in Fani et al. [2012b]; details: autoradiography approach; ref Fani et al. [2012b]; cited from earlier work

T1 sequence (P30874 whole entry): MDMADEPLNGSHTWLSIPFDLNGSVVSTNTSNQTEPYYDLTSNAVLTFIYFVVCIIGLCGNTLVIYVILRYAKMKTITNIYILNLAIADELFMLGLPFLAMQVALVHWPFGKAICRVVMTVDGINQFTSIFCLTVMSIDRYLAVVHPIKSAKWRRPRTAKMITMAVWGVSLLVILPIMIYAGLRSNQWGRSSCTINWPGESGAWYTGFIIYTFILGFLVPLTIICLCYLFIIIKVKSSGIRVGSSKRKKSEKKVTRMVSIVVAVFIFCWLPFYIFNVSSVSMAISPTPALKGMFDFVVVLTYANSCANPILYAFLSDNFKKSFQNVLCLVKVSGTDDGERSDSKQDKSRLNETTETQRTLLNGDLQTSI

tissue uptake at 1 h ([1]; Blood uptake) | tissue uptake at 1 h ([1]; Bone uptake) | tissue uptake at 1 h ([1]; Fat uptake) | tissue uptake at 1 h ([1]; Heart uptake) | tissue uptake at 1 h ([1]; Intestines uptake) | tissue uptake at 1 h ([1]; Kidneys uptake) | tissue uptake at 1 h ([1]; Liver uptake) | tissue uptake at 1 h ([1]; Lungs uptake) | tissue uptake at 1 h ([1]; Ovaries uptake) | tissue uptake at 1 h ([1]; Pancreas uptake) | tissue uptake at 1 h ([1]; Spleen uptake) | tissue uptake at 1 h ([1]; Stomach uptake) | tissue uptake at 1 h ([1]; Uterus uptake) | Kidneys uptake ([2]; 1 h) | SMILES | other results
0.45 %ID/g | 0.2 %ID/g | 0.18 %ID/g | 0.3 %ID/g | 2.39 %ID/g | 9.3 ± 1.7 %ID/g | 0.71 %ID/g | 22.9 %ID/g | 0.51 %ID/g | 11 %ID/g | 0.46 %ID/g | 2.75 %ID/g | 0.54 %ID/g | 9.27 %ID/g | C[C@@H](O)[C@@H]1NC(=O)[C@H](CCCCN)NC(=O)[C@@H](Cc2c[nH]c3ccccc23)NC(=O)[C@H](Cc2ccc(O)cc2)NC(=O)[C@@H](NC(=O)[C@@H](Cc2ccccc2)NC(=O)CN2CCN(CC(=O)O)CCN(CC(=O)O)CCN(CC(=O)O)CC2)CSSC[C@@H](C(=O)N[C@H](CO)[C@@H](C)O)NC1=O [^68Ga-DOTATOC, ^68Ga-DOTA-Tyr^3-octreotide, metal not drawn] | tissue uptake at 1 h ([1]; Adrenals uptake): 9.52 %ID/g; tissue uptake at 1 h ([1]; Brain uptake): 0.03 %ID/g; tissue uptake at 1 h ([1]; Muscle uptake): 0.11 %ID/g; tissue uptake at 1 h ([1]; Tumor uptake): 18.4 ± 2.9 %ID/g; Tumor uptake ([2]; 1 h): 18.44 %ID/g
0.8 %ID/g | 0.26 %ID/g | 0.23 %ID/g | 0.46 %ID/g | 0.9 %ID/g | 14.1 ± 1.7 %ID/g | 0.99 %ID/g | 4.72 %ID/g | 0.67 %ID/g | 9.29 %ID/g | 0.39 %ID/g | 1.36 %ID/g | 0.86 %ID/g | 14.12 %ID/g | C[C@@H](O)[C@@H]1NC(=O)[C@H](CCCCN)NC(=O)[C@@H](Cc2ccc(NC(N)=O)cc2)NC(=O)[C@H](Cc2ccc(NC(=O)[C@@H]3CC(=O)NC(=O)N3)cc2)NC(=O)[C@H](NC(=O)[C@H](Cc2ccc(Cl)cc2)NC(=O)CCC(C(=O)O)N2CCN(CC(=O)O)CCN(CC(=O)O)CC2)CSSC[C@@H](C(=O)N[C@H](Cc2ccc(O)cc2)C(N)=O)NC1=O (stereo partly drawn) [^68Ga-NODAGA-JR11, metal not drawn] | tissue to tissue ratio at 1 h ([1]; Tumor to Background Ratio: Blood (tumor-to-blood)): 15.6; tissue to tissue ratio at 1 h ([1]; Tumor to Background Ratio: Kidneys): 0.87; tissue to tissue ratio at 1 h ([1]; Tumor to Background Ratio: Muscle (tumor-to-muscle)): 45.1; tissue uptake at 1 h ([1]; Adrenals uptake): 2 %ID/g; tissue uptake at 1 h ([1]; Brain uptake): 0.05 %ID/g; tissue uptake at 1 h ([1]; Muscle uptake): 0.28 %ID/g; tissue uptake at 1 h ([1]; Tumor uptake): 12.2 ± 0.8 %ID/g; Tumor uptake ([2]; 1 h): 12.21 %ID/g; Tumor to Background Ratio: Blood (tumor-to-blood) [2]: 15.6 ± 2.2; Tumor to Background Ratio: Muscle (tumor-to-muscle) [2]: 45.2 ± 11.6; higher SUVmax uptake compared to ^68Ga-DOTATOC [4]: ~ 15%
0.35 %ID/g | 0.25 %ID/g | 0.28 %ID/g | 0.67 %ID/g | 7.35 %ID/g | 8.5 ± 1.7 %ID/g | 1.95 %ID/g | 28.7 %ID/g | 0.89 %ID/g | 51.6 %ID/g | 0.84 %ID/g | 8.29 %ID/g | 0.84 %ID/g | 8.45 %ID/g | C[C@@H](O)[C@H](NC(=O)[C@@H]1CSSC[C@H](NC(=O)[C@@H](Cc2ccccc2)NC(=O)CN2CCN(CC(=O)O)CCN(CC(=O)O)CCN(CC(=O)O)CC2)C(=O)N[C@@H](Cc2ccc(O)cc2)C(=O)N[C@H](Cc2c[nH]c3ccccc23)C(=O)N[C@@H](CCCCN)C(=O)N[C@@H]([C@@H](C)O)C(=O)N1)C(=O)O [^68Ga-DOTATATE, ^68Ga-DOTA-Tyr^3-octreotate, metal not drawn] | Brain uptake ([2]; 1 h): 0.03 %ID/g
– | – | – | – | – | – | – | – | – | – | – | – | – | – | C[C@@H](O)[C@@H]1NC(=O)[C@H](CCCCN)NC(=O)[C@@H](Cc2ccc(NC(N)=O)cc2)NC(=O)[C@H](Cc2ccc(NC(=O)[C@@H]3CC(=O)NC(=O)N3)cc2)NC(=O)[C@H](NC(=O)[C@H](Cc2ccc(Cl)cc2)NC(=O)CCC(C(=O)O)N2CCN(CC(=O)O)CCN(CC(=O)O)CC2)CSSC[C@@H](C(=O)N[C@H](Cc2ccc(O)cc2)C(N)=O)NC1=O (stereo partly drawn) [^67/natGa-NODAGA-JR11, metal not drawn] | Bmax (number of binding sites) [5]: 4.39 ± 0.32 × 10^4 sites/cell
– | – | – | – | – | – | – | – | – | – | – | – | – | – | C[C@@H](O)[C@@H]1NC(=O)[C@H](CCCCN)NC(=O)[C@@H](Cc2ccc(NC(N)=O)cc2)NC(=O)[C@H](Cc2ccc(NC(=O)[C@@H]3CC(=O)NC(=O)N3)cc2)NC(=O)[C@H](NC(=O)[C@H](Cc2ccc(Cl)cc2)NC(=O)CCC(C(=O)O)N2CCN(CC(=O)O)CCN(CC(=O)O)CC2)CSSC[C@@H](C(=O)N[C@H](Cc2ccc(O)cc2)C(N)=O)NC1=O (stereo partly drawn) [^natGa-NODAGA-JR11, metal not drawn] | IC50 [6]: 1.2 ± 0.2 nM
